Source: US20140120598A1 (priority 2011, published 2014)
Read-outs that look alike come from different tables or passages of the source.

Tests used:
[1] = system: ΔPHO13 strain (S. cerevisiae BY4741X with PHO13 deleted); type: cell-based; details: for amount of production of ethanol: 80 g/L xylose
Source text: (§1) A solution obtained by incorporating 80 g/L of xylose into a YP medium (containing 1% of a yeast extract, 2% of peptone, and 0.5% of […]) was used as a material using xylose as a carbon source. […]

S. cerevisiae MN8140X = details: 100 mM of acetic acid
Source text: A medium formed of 10 g/L of a yeast extract, 20 g/L of polypeptone, 80 g/L of glucose, and 60 g/L of xylose was used as the solution using glucose and xylose as carbon sources.

BY4741X strain (control) = assay: Fermentation with xylose as carbon source by the control strain in the presence of a fermentation inhibitor; type: cell-based, S. cerevisiae; details: 72 hours
Source text: as §1

[2] = 60 mM of acetic acid, after 24 hours
[3] = 60 mM of acetic acid, after 72 hours
[4] = 30 mM of formic acid, after 24 hours
[5] = 30 mM of formic acid, after 72 hours
[6] = 60 mM of furfural versus no furfural, 72 hours
[7] = 90 mM of furfural, after 24 hours
[8] = 90 mM of furfural, after 72 hours

`CC(=O)O` [acetic acid] was tested, and the “resistance of the strain to the fermentation inhibitor in ethanol production using xylose as a carbon source” value [1] was “resistant”, the “amount of production of ethanol relative to control (BY4741X strain)” value [1, 2] was 2.3 times and the “amount of production of ethanol” value [1, 2] was 13 g/L. The “amount of production of ethanol relative to control (BY4741X strain)” value [1, 3] was 1.4 times, the “amount of production of ethanol” value [1, 3] was 20 g/L and the “consumption rate of xylose” value ([1]; acetic acid 0, 30 and 60 mM, 72 hours) was “reduced depending on an acetic acid concentration”. The “action in ethanol production by the yeast” value (S. cerevisiae MN8140X) was “showed a fermentation inhibitory action”, the “amount of production of ethanol” value (S. cerevisiae MN8140X; fermentation 48 hours, 30° C.) was “also suppressed” and the “consumption of glucose as a carbon source” value (S. cerevisiae MN8140X; fermentation 48 hours, 30° C.) was “suppressed”. The “consumption rate of xylose” value (BY4741X strain (control); acetic acid 0, 30 and 60 mM) was “reduced depending on an acetic acid concentration”.

For `O=CO` [formic acid], the “resistance of the strain to the fermentation inhibitor in ethanol production using xylose as a carbon source” value [1] was “resistant”, the “amount of production of ethanol relative to control (BY4741X strain)” value [1, 4] was 4.1 times and the “amount of production of ethanol” value [1, 4] was 6 g/L. The “amount of production of ethanol relative to control (BY4741X strain)” value [1, 5] was 5.5 times, the “amount of production of ethanol” value [1, 5] was 11 g/L and the “xylose consumption and ethanol production versus inhibitor concentration” value ([1]; formic acid 0, 15 and 30 mM, 72 hours) was “a tendency similar to that in the case of acetic acid was observed”.

`O=Cc1ccco1` [furfural] was tested, and the “resistance of the strain to the fermentation inhibitor in ethanol production using xylose as a carbon source” value [1] was “resistant”, the “consumption rate of xylose” value [1, 6] was “substantially the same as that in the case where furfural was not incorporated” and the ethanol-producing ability [1, 6] was “effective ethanol production was similarly observed”. For the same molecule, the “amount of production of ethanol relative to control (BY4741X strain)” value [1, 7] was 27.5 times, the “amount of production of ethanol” value [1, 7] was 21 g/L and the “amount of production of ethanol relative to control (BY4741X strain)” value [1, 8] was 5.5 times. The “amount of production of ethanol” value [1, 8] was 31 g/L and the “consumption rate of xylose” value (BY4741X strain (control); furfural 60 and 90 mM versus 0 mM) was “reduced”.
